One series deals with HuH-7 cells. In words: Inhibition of HuH-7 cell proliferation (CellTiter-Glo). The series is classed as cell-based. The note with it: Homo sapiens, Huh-7, 72 h, read-out: HuH-7 IC50. The procedure:
In this experiment, the inhibitory effect of the compounds on HuH-7 cell proliferation was tested by a CellTiter-Glo method, and the half maximal inhibitory concentration (IC50) of the compounds on the activity of cell proliferation was determined.
1) A 96-well cell culture plate was seeded with 50˜100 μL of HuH-7 cell suspension at a density of 1˜5×10^4 cells/ml. The culture plate was incubated in an incubator for 16˜24 hours (37° C., 5% CO2).
(§1) 2) Different concentrations of the test compound in a gradient dilution were added to the cells in the culture plate. The culture plate was incubated in an incubator for 72 hours (37° C., 5% CO2).
3) 50˜100 μL of CellTiter-Glo reagent was added to each well. Then, the culture plate was shaken or left to stand for 5˜30 minutes at room temperature.
(§2) 4) The chemiluminescence signal values of each plate were determined by a microplate reader.
(§3) 5) The inhibition rates were calculated according to the chemiluminescence signal values.
(§4) 6) The IC50 of the compound was obtained by curve fitting according to the inhibition rates at different concentrations, and the cell activity of the specific example compounds is shown in Table 2.
(In general: Cellular ATP, detected with luciferase, serves as a proxy for viable cell number.)

The next series relates to Hep 3B cells. In words: Inhibition of Hep 3B cell proliferation (CellTiter-Glo). It is filed as cell-based. How it is done:
In this experiment, the inhibitory effect of the compounds on Hep 3B cell proliferation was tested by a CellTiter-Glo method, and the half maximal inhibitory concentration (IC50) of the compounds on the activity of cell proliferation was determined.
1) A 96-well cell culture plate was seeded with 50˜100 μL of Hep 3B cell suspension at a density of 1˜5×10^4 cells/ml. The culture plate was incubated in an incubator for 16˜24 hours (37° C., 5% CO2).
as §1
(§5) 3) 50˜100 μL of CellTiter-Glo reagent were added to each well. Then, the culture plate was shaken or left to stand for 5˜30 minutes at room temperature.
as §2, §3

A short description of series [1]: Pharmacokinetic (PK) analysis in rats. To be noted: SD rats, single intragastric administration, 5 mg/kg; for Peak Time tmax: (sampling in hours); for AUC(0-t) / AUC(0-inf) / half-life / MRT / Cmax: Sprague-Dawley, rat, plasma, po; for AUC(0-t): read-out: Area Under Curve AUC0-t; for AUC(0-inf): read-out: Area Under Curve AUC0-∞; for half-life: read-out: Half-Time t1/2 (converted); for MRT: read-out: Mean Residence Time MRT; for Cmax: read-out: Plasma Concentration Cmax. It is filed as in vivo, Sprague Dawley (SD) rats. How it is done:
1) 0.2 ml of intravenous blood was collected and placed in a K2EDTA test tube. The blood was centrifuged at room temperature at the speed of 1000˜3000×g for 5˜20 minutes to isolate the plasma, which was then stored at −80° C.
2) 160 μL of acetonitrile was added to 40 μL of plasma sample for precipitation, and then the mixture was centrifuged at the speed of 500˜2000×g for 5˜20 minutes.
3) 100 μL of treated solution was taken, and the concentration of the test compound was analyzed by LC/MS/MS. The LC/MS/MS analytical instrument was AB Sciex API 4000. • Liquid chromatography analysis: • Condition of Liquid chromatography: Shimadzu LC-20AD pump • Chromatographic column: phenomenex Gemiu 5 um C18 50×4.6 mm • Mobile phase: Solution A is 0.1% formic acid aqueous solution, and Solution B is acetonitrile • Flow rate: 0.8 mL/min • Elution time: 0-3.5 minutes, the eluent was used as follows: […]

A further series concerns the target FGFR1 kinase (Homo sapiens (Human), UniProt P11362). In words: Enzymologic experiment of FGFR1 (TR-FRET). It is filed as biochemical. The note with it: FGFR1 kinase activity. How it is done: In this experiment, the inhibitory effect of the compounds on FGFR1 kinase activity was tested by a fluorescence resonance energy transfer (TR-FRET) method, and the half maximal inhibitory concentration (IC50) of the compounds on the FGFR1 kinase activity was determined.
1) 1˜5 μL of FGFR1 enzyme solution was added to a 384-well plate, and the final concentration of the enzyme was 0.1˜5 nM.
2) 1˜5 μL of diluted solution in gradient of the compound was added.
3) 1˜5 μL of a substrate mixture containing substrate polypeptide with a final concentration of 5˜50 nM and ATP with a final concentration of 10˜200 μM was added.
4) The mixture was incubated for 0.5˜3 hours at room temperature.
5) 10 μL of EDTA and a test solution comprising labeled antibody were added, and the plate was incubated for 1 hour at room temperature.
6) The fluorescence signal values of each plate were determined by a microplate reader at 665 nm.
7) The inhibition rates were calculated according to the fluorescence signal values.
8) The IC50 of the compound was obtained by curve fitting according to the inhibition rates at different concentrations, and the enzymatic activity of the specific example compounds is shown in Table 1.
A general note: TR-FRET usually uses a lanthanide donor and a delayed reading to cut background.

The next series concerns SK-HEP-1 cells. In words: Inhibition of SK-HEP-1 cell proliferation (CellTiter-Glo). It is filed as cell-based. To be noted: Homo sapiens, SK-HEP1, 72 h, read-out: SK-HEP-1 IC50. The procedure:
In this experiment, the inhibitory effect of the compounds on SK-HEP-1 cell proliferation was tested by a CellTiter-Glo method, and the half maximal inhibitory concentration (IC50) of the compounds on the activity of cell proliferation was determined.
1) A 96-well cell culture plate was seeded with 50˜100 μL of SK-HEP-1 cell suspension at a density of 1˜5×10^4 cells/ml. The culture plate was incubated in an incubator for 16˜24 hours (37° C., 5% CO2).
as §1, §5, §2, §3, §4

[2] abbreviates: Homo sapiens, Hep3B, 72 h, read-out: Hep 3B IC50, Hep 3B cell proliferation, 72 hours, CellTiter-Glo.

Like-named read-outs stand apart in the source and are kept apart here. Where only a bound is given, the exact number is not on record here.

The term MRT denotes a mean duration of stay, worked out from the concentration-time curve.

FGFR1 kinase, sequence (P11362 22-822): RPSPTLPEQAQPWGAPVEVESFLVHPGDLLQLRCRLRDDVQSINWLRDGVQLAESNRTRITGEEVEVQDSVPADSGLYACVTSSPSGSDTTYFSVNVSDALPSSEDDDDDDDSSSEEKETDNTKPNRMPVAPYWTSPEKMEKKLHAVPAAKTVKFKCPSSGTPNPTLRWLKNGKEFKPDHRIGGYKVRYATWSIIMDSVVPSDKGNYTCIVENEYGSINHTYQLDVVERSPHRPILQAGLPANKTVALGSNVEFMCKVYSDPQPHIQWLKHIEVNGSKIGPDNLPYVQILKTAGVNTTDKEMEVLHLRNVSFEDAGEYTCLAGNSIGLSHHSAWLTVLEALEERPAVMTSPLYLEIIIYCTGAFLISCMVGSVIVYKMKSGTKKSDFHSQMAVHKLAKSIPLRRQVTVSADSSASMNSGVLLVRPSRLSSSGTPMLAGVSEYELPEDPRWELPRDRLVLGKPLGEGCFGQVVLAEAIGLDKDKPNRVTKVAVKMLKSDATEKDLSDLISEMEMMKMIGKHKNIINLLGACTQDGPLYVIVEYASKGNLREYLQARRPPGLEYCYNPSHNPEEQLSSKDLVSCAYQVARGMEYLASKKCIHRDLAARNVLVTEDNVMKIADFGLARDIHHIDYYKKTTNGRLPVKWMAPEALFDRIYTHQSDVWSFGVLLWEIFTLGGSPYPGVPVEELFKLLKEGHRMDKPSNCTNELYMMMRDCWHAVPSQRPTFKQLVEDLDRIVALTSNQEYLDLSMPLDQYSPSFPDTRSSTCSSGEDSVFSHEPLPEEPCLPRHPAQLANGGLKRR

Take `COC1CCN(c2cc(NC(=O)N3CCCc4cc(CN5CCOCC5=O)c(C=O)nc43)ncc2C#N)C1` (stereo not drawn) [Example 4, N-(5-Cyano-4-(3-methoxypyrrolidin-1-yl)pyridin-2-yl)-7-formyl-6-((3-carbonylmorpholino)methyl)-3,4-dihydro-1,8-naphthyridin-1(2H)-carboxamide]: the IC50 in the series on HuH-7 cells was found to be 18.4 nM. In addition, the IC50 in the series with Hep 3B cells (setting [2]) amounted to 2.5 nM. In series [1], the Peak Time tmax came to 2 h, the AUC(0-t) is 8740 ng·h/mL, the AUC(0-inf) was 8740 ng·h/mL and the half-life is 36.6 min. Moreover, in series [1], the mean residence time (MRT) is 3.07 h and the Cmax is 3370 ng/mL. For the same compound, the IC50 against FGFR1 kinase was greater than 10 µM. Moreover, the IC50 in the series with SK-HEP-1 cells was greater than 10 µM.

Take `COCC1(Nc2cc(NC(=O)N3CCCc4cc(CN5CCOCC5=O)c(C=O)nc43)ncc2C#N)CC1` [Example 11]: the IC50 in the series on HuH-7 cells was 12.4 nM. The IC50 in the series on Hep 3B cells (setting [2]) is 8.4 nM. Besides, in series [1], the Peak Time tmax came out at 2 h, the AUC(0-t) stood at 3890 ng·h/mL, the AUC(0-inf) turned out to be 3960 ng·h/mL and the half-life is 69.6 min. For the same compound, in series [1], the MRT amounted to 2.68 h and the Cmax turned out to be 1540 ng/mL. Further, on FGFR1 kinase, the IC50 was greater than 10 µM. For the same compound, the IC50 in the series on SK-HEP-1 cells is greater than 10 µM.

In the case of `COCCSc1cc(NC(=O)N2CCCc3cc(CN4CCOCC4=O)c(C=O)nc32)ncc1C#N` [Example 13, N-(5-Cyano-4-((2-methoxyethyl)thio)pyridin-2-yl)-7-formyl-6-((3-carbonylmorpholino)methyl)-3,4-dihydro-1,8-naphthyridin-1(2H)-carboxamide], the IC50 in the series with HuH-7 cells was found to be 32.3 nM. Further, the IC50 with Hep 3B cells (setting [2]) worked out at 20.8 nM. Also, in series [1], the Peak Time tmax came to 2 h, the AUC(0-t) is 3510 ng·h/mL, the AUC(0-inf) amounted to 3570 ng·h/mL and the half-life is 69.6 min. In addition, in series [1], the mean residence time (MRT) amounted to 2.8 h and the Cmax worked out at 1200 ng/mL. In addition, the IC50 on FGFR1 kinase was greater than 10 µM. In addition, the IC50 in the series on SK-HEP-1 cells is greater than 10 µM.

In the case of `CO[C@@H]1CCCC1Oc1cc(NC(=O)N2CCCc3cc(CN4CCOCC4=O)c(C=O)nc32)ncc1C#N` (stereo partly drawn) [Example 16, N-(5-Cyano-4-(((trans)-2-methoxycyclopentyl)oxy)pyridin-2-yl)-7-formyl-6-((3-carbonylmorpholino)methyl)-3,4-dihydro-1,8-naphthyridin-1(2H)-carboxamide], in the series on HuH-7 cells, the IC50 was 13.2 nM. Also, the IC50 in the series on Hep 3B cells (setting [2]) amounted to 10.5 nM. In addition, in series [1], the Peak Time tmax came out at 2 h, the AUC(0-t) is 5520 ng·h/mL, the AUC(0-inf) came out at 5610 ng·h/mL and the half-life is 61.2 min. In series [1], the MRT was determined as 2.96 h and the Cmax worked out at 1600 ng/mL. This compound showed an IC50 against FGFR1 kinase greater than 10 µM. Also, in the series on SK-HEP-1 cells, the IC50 is greater than 10 µM.

As to `CO[C@@H]1CCN(c2cc(NC(=O)N3CCCc4cc(CN5C(=O)OC[C@@H]5C)c(C=O)nc43)ncc2C#N)C1` [Example 38, N-(5-Cyano-4-((R)-3-methoxypyrrolidin-1-yl)pyridin-2-yl)-7-formyl-6-(((S)-4-methyl-2-carbonyloxazolidin-3-yl)methyl)-3,4-dihydro-1,8-naphthyridin-1(2H)-carboxamide], the IC50 in the series with HuH-7 cells came out at 11.8 nM. Besides, in the series with Hep 3B cells (setting [2]), the IC50 amounted to 13.3 nM. In series [1], the Peak Time tmax was 2 h, the AUC(0-t) is 2400 ng·h/mL, the AUC(0-inf) turned out to be 2540 ng·h/mL and the half-life was 82.8 min. Also, in series [1], the MRT was found to be 3.91 h and the Cmax came to 2660 ng/mL. The same compound registered an IC50 against FGFR1 kinase greater than 10 µM. For the same compound, in the series with SK-HEP-1 cells, the IC50 is greater than 10 µM.

As to `CO[C@H]1CCN(c2cc(NC(=O)N3CCCc4cc(CN5CCOC5=O)c(C=O)nc43)ncc2C#N)C1` [Example 40, (S)-N-(5-Cyano-4-(3-methoxypyrrolidin-1-yl)pyridin-2-yl)-7-formyl-6-((2-carbonyloxazolidin-3-yl)methyl)-3,4-dihydro-1,8-naphthyridin-1(2H)-carboxamide], the IC50 in the series with HuH-7 cells was determined as 29.6 nM. Moreover, the IC50 in the series with Hep 3B cells (setting [2]) amounted to 38.7 nM. Also, in series [1], the Peak Time tmax turned out to be 2 h, the AUC(0-t) was 1080 ng·h/mL, the AUC(0-inf) turned out to be 1100 ng·h/mL and the half-life is 63 min. Further, in series [1], the MRT was 3.36 h and the Cmax turned out to be 1560 ng/mL. For the same compound, the IC50 against FGFR1 kinase was greater than 10 µM. Moreover, the IC50 with SK-HEP-1 cells was greater than 10 µM.

For the compound `CO[C@H]1CCN(c2cc(NC(=O)N3CCCc4cc(CN5CCCOC5=O)c(C=O)nc43)ncc2C#N)C1` [Example 50, (S)-N-(5-Cyano-4-(3-methoxypyrrolidin-1-yl)pyridin-2-yl)-7-formyl-6-((2-carbonyl-1,3-oxazinan-3-yl)methyl)-3,4-dihydro-1,8-naphthyridin-1(2H)-carboxamide], the IC50 with HuH-7 cells was 15.3 nM; with Hep 3B cells (setting [2]), 5.5 nM; against FGFR1 kinase, greater than 10 µM; in the series on SK-HEP-1 cells, greater than 10 µM.

With `COc1ccncc1Nc1cc(NC(=O)N2CCCc3cc(CN4CCOCC4=O)c(C=O)nc32)ncc1C#N` [Example 58, N-(5-Cyano-4-((4-methoxypyridin-3-yl)amino)pyridin-2-yl)-7-formyl-6-((3-carbonylmorpholino)methyl)-3,4-dihydro-1,8-naphthyridin-1(2H)-carboxamide], the IC50 with HuH-7 cells was 20.7 nM; in the series with Hep 3B cells (setting [2]) it was 6.9 nM; on FGFR1 kinase it was greater than 10 µM; in the series on SK-HEP-1 cells it was greater than 10 µM.

For `CO[C@H]1CCOCC1Oc1cc(NC(=O)N2CCCc3cc(CN4CCOCC4=O)c(C=O)nc32)ncc1C#N` (stereo partly drawn) [Example 68, N-(5-Cyano-4-(((3,4)-trans-4-methoxytetrahydro-2H-pyran-3-yl)oxy)pyridin-2-yl) -7-formyl-6-((3-carbonylmorpholino)methyl)-3,4-dihydro-1,8-naphthyridin-1(2H)-carboxamide], the IC50 is 40.8 nM with HuH-7 cells; 10.9 nM in the series on Hep 3B cells (read-out: Hep 3B IC50, Hep 3B cell proliferation, 72 hours, CellTiter-Glo); greater than 10 µM at FGFR1 kinase; greater than 10 µM in the series on SK-HEP-1 cells.

Values taken from patent publication US11667631B2, “FGFR4 inhibitor, preparation method therefor, and applications thereof” (Jiangsu Hansoh Pharmaceutical Group Co., Ltd., priority 2016, dated 2023).
